Test results from ChEMBL document CHEMBL1148359, “Design, synthesis, and biological evaluation of 2,4-diamino-5-methyl-6-substituted-pyrrolo[2,3-d]pyrimidines as dihydrofolate reductase inhibitors” (J Med Chem, 2004).

Key:
Dihydrofolate reductase [1] = molecular target: T1, Dihydrofolate reductase (Pneumocystis carinii, UniProt P16184); experiment: Inhibition of Dihydrofolate reductase from Pneumocystis carinii (Pneumocystis carinii)
T1 sequence (P16184 whole entry): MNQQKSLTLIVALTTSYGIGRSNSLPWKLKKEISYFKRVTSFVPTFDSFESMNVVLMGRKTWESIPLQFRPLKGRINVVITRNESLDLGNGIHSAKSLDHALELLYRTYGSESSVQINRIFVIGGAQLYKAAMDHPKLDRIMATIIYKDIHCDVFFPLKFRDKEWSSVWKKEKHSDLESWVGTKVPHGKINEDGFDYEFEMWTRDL

Dihydrofolate reductase [2] = molecular target: T2, Dihydrofolate reductase (Rattus norvegicus, UniProt Q920D2); experiment: Inhibitory concentration against Dihydrofolate reductase from rat liver
T2 sequence (Q920D2 whole entry): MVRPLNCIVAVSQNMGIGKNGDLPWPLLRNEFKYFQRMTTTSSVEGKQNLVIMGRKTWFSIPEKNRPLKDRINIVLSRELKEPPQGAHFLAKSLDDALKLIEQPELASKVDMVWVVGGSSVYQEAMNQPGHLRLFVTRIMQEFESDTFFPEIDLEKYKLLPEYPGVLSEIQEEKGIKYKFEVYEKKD

Dihydrofolate reductase [3] = molecular target: T3, Dihydrofolate reductase (Mycobacterium avium, UniProt O30463); experiment: Inhibitory concentration against Dihydrofolate reductase from Mycobacterium avium (Mycobacterium avium)
T3 sequence (O30463 whole entry): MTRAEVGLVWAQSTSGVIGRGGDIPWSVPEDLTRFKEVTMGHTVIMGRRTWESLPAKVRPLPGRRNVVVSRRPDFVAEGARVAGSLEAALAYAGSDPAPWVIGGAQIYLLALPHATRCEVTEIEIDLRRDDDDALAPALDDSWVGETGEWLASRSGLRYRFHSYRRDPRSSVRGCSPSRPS

[4] = Selectivity ratio (IC50 rlDHFR)/(IC50 maDHFR)
[5] = molecular target: T4, Dihydrofolate reductase (Pneumocystis carinii) (UniProt P16184); experiment: Inhibition against Dihydrofolate reductase from Pneumocystis carinii (Pneumocystis carinii) at 12 uM of compound
T4 sequence (whole entry): T1 sequence (P16184 whole entry)

[6] = Selectivity ratio (IC50rlDHFR)/(IC50 tgDHFR)
[7] = molecular target: T5, Bifunctional dihydrofolate reductase-thymidylate synthase (Toxoplasma gondii, UniProt Q07422); experiment: Inhibitory concentration against Dihydrofolate reductase from Toxoplasma gondii (Toxoplasma gondii)
T5 sequence (Q07422 whole entry): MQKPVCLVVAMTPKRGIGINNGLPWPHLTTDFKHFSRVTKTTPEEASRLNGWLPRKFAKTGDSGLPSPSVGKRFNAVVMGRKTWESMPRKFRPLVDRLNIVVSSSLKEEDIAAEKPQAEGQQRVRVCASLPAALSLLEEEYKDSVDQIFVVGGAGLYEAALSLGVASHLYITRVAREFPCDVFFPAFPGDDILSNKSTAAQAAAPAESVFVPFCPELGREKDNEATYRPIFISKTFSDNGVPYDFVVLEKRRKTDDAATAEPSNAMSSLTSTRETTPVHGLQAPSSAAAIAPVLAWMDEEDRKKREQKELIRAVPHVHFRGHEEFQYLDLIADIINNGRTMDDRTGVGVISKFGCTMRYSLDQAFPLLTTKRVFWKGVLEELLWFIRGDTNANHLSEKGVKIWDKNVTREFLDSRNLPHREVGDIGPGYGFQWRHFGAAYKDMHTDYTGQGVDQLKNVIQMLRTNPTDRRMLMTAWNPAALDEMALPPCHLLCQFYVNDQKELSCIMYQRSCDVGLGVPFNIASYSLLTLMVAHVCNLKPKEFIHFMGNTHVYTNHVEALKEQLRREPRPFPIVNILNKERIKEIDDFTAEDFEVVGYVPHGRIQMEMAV

[8] = Selectivity ratio [(IC50 rlDHFR)/(IC50 pcDHFR)

Row | SMILES | IC50 (Dihydrofolate reductase [1]) | IC50 (Dihydrofolate reductase [2]) | IC50 (Dihydrofolate reductase [3]) | Selectivity ratio [4] | inhibition [5] | Selectivity ratio [6] | IC50 [7] | Selectivity ratio [8]
1 | Cc1c(Sc2ccc(Cl)cc2)[nH]c2nc(N)nc(N)c12 | 16.7 µM | 19 µM | 4 µM | – | – | – | – | –
2 | Cc1c(Sc2cccc(Cl)c2)[nH]c2nc(N)nc(N)c12 | – | 47.7 µM | 4.4 µM | – | – | – | – | –
3 | COc1cc(CC2CN=C(N)N=C2N)cc(OC)c1OC (centres undefined) | – | – | 0.3 µM | – | – | – | – | –
4 | Cc1c(Sc2ccc(Cl)cc2Cl)[nH]c2nc(N)nc(N)c12 | > 12 µM | 110 µM | 19 µM | 5.79 | 14% | 5.5 | 20 µM | –
5 | Cc1c(Sc2cccc3ccccc23)[nH]c2nc(N)nc(N)c12 | – | – | 0.7 µM | 6.92 | – | 27.9 | 0.16 µM | 0.12
6 | COc1ccccc1Sc1[nH]c2nc(N)nc(N)c2c1C | 22 µM | 2.32 µM | 0.3 µM | – | – | – | – | –
7 | COc1ccc(Sc2[nH]c3nc(N)nc(N)c3c2C)cc1 | 112 µM | 31.3 µM | 0.6 µM | – | – | – | – | –
8 | COc1cccc(Sc2[nH]c3nc(N)nc(N)c3c2C)c1 | 60.2 µM | 2.06 µM | 1.37 µM | – | – | – | – | –
9 | COc1ccc(OC)c(Sc2[nH]c3nc(N)nc(N)c3c2C)c1 | – | 7.8 µM | – | – | – | – | 0.17 µM | –
